Where no end group is shown, it is not given here.
Columns and labels:
T84 cells [1] = test system: T84 cells
T84 cells [2] = assay type: cell-based
pig jejunum [3] = assay: TER of pig jejunal mucosa in Ussing chambers; parameters: species or system Yorkshire crossbred pigs
pig jejunum [4] = assay: mucosal-to-serosal 3H-mannitol flux in pig jejunal mucosa; parameters: species or system Yorkshire crossbred pigs; conditions: n = 3
occludin = assay: Western analysis of occludin in sucrose density gradient membrane fractions; parameters: species or system Yorkshire crossbred pigs; conditions: ischemic pig jejunum, n = 3 experiments
pig jejunum [5] = assay: short-circuit current (Cl− secretion) of pig jejunal mucosa in Ussing chambers; parameters: species or system Yorkshire crossbred pigs; conditions: 1 μM, n = 4
T84 cells [6] = assay: FITC-LPS flux across T84 cells; assay type: cell-based; conditions: IFN-γ 100 ng/ml
T84 cells [7] = assay type: cell-based; remark: listed apart in the source
T84 cells [8] = assay: mitochondrial membrane potential of T84 cells (JC-1); assay type: cell-based
T84 cells [9] = assay: plasma membrane potential of T84 cells (DiBAC4(3)); assay type: cell-based; conditions: different concentrations, p wrt 1 nM drug, n = 5
T84 cells [10] = assay: 3,000 Da FITC-dextran flux across T84 cells; assay type: cell-based; conditions: 200 nM active linaclotide, 200 nM guanylin, 100 nM lubiprostone, 3 days, then dextran 24 h, n = 3
T84 cells [11] = assay: 70,000 Da rhodamine-dextran flux across T84 cells; assay type: cell-based; conditions: 200 nM active linaclotide, 200 nM guanylin, 100 nM lubiprostone, 3 days, then dextran 24 h, n = 3
ClC-2 Cl- channels = test system: ClC-2 Cl- channels; parameters: method as in PMID 15213059, PMID 18511742; conditions: apical membrane of epithelial cells; ref [17],[18]; cited from earlier work
[12] = test system: patients with IBS-C and CIC; conditions: human, in vivo; cited from earlier work
[13] = parameters: method as in PMID 16603730; conditions: ref [19],[20]; cited from earlier work
patients with IBS-C = conditions: ref [21]; cited from earlier work
porcine intestine = test system: porcine intestine; parameters: method as in PMID 17053162, PMID 18976652, PMID 18932279; conditions: porcine intestine models; ref [22]-[24]; cited from earlier work
[14] = test system: guanylate cyclase-C (GC-C); conditions: cited from earlier work
K+ channels = conditions: cited from earlier work
rodent animal models = conditions: in vivo; cited from earlier work

Nc1nc2c(nc(Br)n2[C@@H]2O[C@@H]3COP(=O)(O)O[C@H]3[C@H]2O)c(=O)[nH]1 [8BrcGMP, 8-bromo cGMP]
effect on T84 TER, no stressor (T84 cells [1]): reduced T84 epithelial cell TER significantly
effects against IFN-γ (T84 cells [1]): effects similar to active linaclotide

CCCCC[C@H](O)/C=C/[C@H]1[C@H](O)CC(=O)[C@@H]1CCCCCCC(=O)O [PGE1, Prostaglandin E1]
effect on [Ca2+]i (T84 cells [2]): significantly increased

CCCCC(F)(F)[C@@]1(O)CC[C@H]2[C@@H](CC(=O)[C@@H]2CCCCCCC(=O)O)O1 [lubiprostone]
ΔTER, control intestine (pig jejunum [3]; control pig jejunum, 1000 nM (1 μM), control ΔTER 2.1±1.8, n = 5, p < 0.01, mean ± S.E.): 26.3 ± 6.2 % mean basal
effect on TER after ischemia (pig jejunum [3]; ischemic pig jejunum (45 min ischemia), n = 5): large, significant increase in TER
effect on 3H-mannitol flux, control intestine (pig jejunum [4]; control pig jejunum, 60 min flux period): neither compound had any effect
effect on 3H-mannitol flux after ischemia (pig jejunum [4]; ischemic pig jejunum (45 min ischemia)): decrease in ^3H-mannitol fluxes
effect on occludin after ischemia (occludin): major return of occludin to detergent-insoluble fractions
effect on Isc, control intestine (pig jejunum [5]): significant and similar increases in Isc
IFN-γ-counteracting effect on FITC-LPS flux (T84 cells [6]; 200 nM active linaclotide or 100 nM lubiprostone, 3 days, then LPS 24 h, n = 3): ~89%
IFN-γ-counteracting effect on occludin/actin ratio (T84 cells [7]): ~43.8%
effect on mitochondrial membrane potential, no stressor (T84 cells [8]; 200 nM active linaclotide, 100 nM lubiprostone, 3 days): no effect on the mitochondrial membrane potential
IFN-γ-counteracting effect on mitochondrial membrane potential (T84 cells [8]; IFN-γ 100 ng/ml, 200 nM active linaclotide or 100 nM lubiprostone, 3 days, n = 8): ~77.8%
effect on plasma membrane potential (T84 cells [9]): significantly hyperpolarized
effect on mucosal to serosal 3,000 Da FITC-dextran flux (T84 cells [10]): decreases of these fluxes
effect on mucosal to serosal 70,000 Da rhodamine-dextran flux (T84 cells [11]): decreases of these fluxes
effect on T84 TER, no stressor (T84 cells [1]): slight increase in TER
effect of compound alone on measured T84 parameters (T84 cells [1]; T84 cells, no stressor, barrier function and mitochondrial membrane potential parameters together): no negative effects on the measured parameters
IFN-γ-counteracting effect on TER (T84 cells [1]; T84 cells, IFN-γ 100 ng/ml, 200 nM active linaclotide or 100 nM lubiprostone, n = 3, Δlin vs Δlubi p < 0.0005): ca. 27.3%
effect on TNF-α-induced TER change (T84 cells [1]; T84 cells, TNF-α 50 ng/ml, 200 nM active linaclotide or 100 nM lubiprostone): partially protected/repaired barrier function
ClC-2 activation (ClC-2 Cl- channels): activates ClC-2 Cl^- channels
clinical effect on abdominal discomfort and pain [12]: ameliorates abdominal discomfort and pain
clinical efficacy of lubiprostone (symptoms) [12]: significantly improving symptoms associated with CIC and IBS-C
intestinal secretion and bowel movements [13]: increasing intestinal salt and water secretion, promoting bowel movements
effect on visceral pain thresholds (patients with IBS-C): without influencing visceral pain thresholds
barrier repair after ischemia (porcine intestine): promotes repair of barrier properties which are disrupted by ischemia

CCC(=O)C(CC(C)N(C)C)(c1ccccc1)c1ccccc1 (stereo not shown) [methadone]
effect of methadone on linaclotide's effect on TER after TNF-α (T84 cells [1]): no effect
effect of methadone on lubiprostone's protection/repair of TER after TNF-α (T84 cells [1]): inhibited completely

guanylin: well established GC-C activator, Sigma-Aldrich (PGTCEICAYAACTGC; ends and bridges not checked; cysteine pairing not given here; UniProt Q02747 101-115, looked up)
effect on mucosal to serosal 3,000 Da FITC-dextran flux (T84 cells [10]): increased mucosal to serosal fluxes
effect on mucosal to serosal 70,000 Da rhodamine-dextran flux (T84 cells [11]): increased mucosal to serosal fluxes
effect on T84 TER, no stressor (T84 cells [1]): reduced T84 epithelial cell TER significantly
effects against IFN-γ (T84 cells [1]): effects similar to active linaclotide
GC-C activation [14]: activates guanylate cyclase-C (GC-C) leading to increased [cGMP]i
K+ channel activation (K+ channels): activate K^+ channels

linaclotide
GC-C activation [14]: activates guanylate cyclase-C (GC-C) leading to increased [cGMP]i
intestinal fluid secretion, transit and pain (rodent animal models): stimulated intestinal fluid secretion and transit time and reduced pain
clinical efficacy of linaclotide [12]: improve bowel symptoms, transit time and abdominal discomfort or pain

uroguanylin: activates guanylate cyclase-C (NDDCELCVNVACTGCL; ends and bridges not checked; cysteine pairing not given here; UniProt Q16661 97-112, looked up)
GC-C activation [14]: activates guanylate cyclase-C (GC-C) leading to increased [cGMP]i
K+ channel activation (K+ channels): activate K^+ channels

B1: Interferon-γ (protein, UniProt P01579 24-161, looked up)
Interferon gamma: QDPYVKEAENLKKYFNAGHSDVADNGTLFLGILKNWKEESDRKIMQSQIVSFYFKLFKNFKDDQSIQKSVETIKEDMNVKFFNSNKKKRDDFEKLTNYSVTDLNVQRKAIHELIQVMAELSPAAKTGKRKRSQMLFRG
stressor effect on mucosal to serosal FITC-LPS flux (T84 cells [6]; p < 0.0005): increased mucosal to serosal FITC-LPS flux
stressor effect on occludin/actin ratio (T84 cells [7]; T84 cells, IFN-γ 100 ng/ml, p < 0.0005): decreased the occludin/actin ratio
stressor effect on mitochondrial membrane potential (T84 cells [8]; IFN-γ 100 ng/ml, p < 0.0005): decreased the mitochondrial membrane potential
stressor effect on TER (T84 cells [1]): significantly reduced TER

Reference: paper PMC3403872, “Contrasting effects of linaclotide and lubiprostone on restitution of epithelial cell barrier properties and cellular homeostasis after exposure to cell stressors” (BMC Pharmacology, 2012)
